Laboratory results as given in patent publication US20250152605A1, “METHOD AND DRUG FOR TREATING NEURONAL CEROID LIPOFUSCINOSIS” (priority 2021, published 2025).

Experiments:
cathepsin D = test: Intracellular cathepsin D activity; format: cell-based, human; settings: CLN3^Δex7/8 neurons
Description: The activity of intracellular protease cathepsin D was measured using Abcam's Cathepsin D Activity Assay kit. Each sample was prepared in more than 3 replicates. […]

p62 protein = p62 protein blotting with Baf-A1 (autophagic flux) in human neurons; format: cell-based
Description: Sample preparation: for adherent cultured cells, exemplified by cells cultured in a six-well cell plate, the cell medium was aspirated and the cells were washed once with dPBS. About 100 μL of RIPA lysate (50 mM Tris-HCl, pH 7.5, 150 mM NaCl, 0.25% Na-deoxycholate, 0.1% NP-40, 0.1% Triton X-100) containing protease inhibitors and phosphatase inhibitors was added to each well. The cell lysate was scraped off completely with a cell scraper and collected into 1.5 mL EP tubes. Lysis was continued for 30 minutes on ice. For animal tissue, the weight of the animal tissue was weighed, and RIPA lysate containing protease inhibitors and phosphatase inhibitors was added with five times the volume of the animal tissue. The tissue was grinded on ice with a tissue grinder until there is no obvious tissue mass, collected into 1.5 mL EP tubes, and placed on ice for further lysis for 30 min. […]

[1] = tested on: mouse tail tip fibroblasts (TTF); test: qRT-PCR of autophagy-related and lysosomal genes in mouse tail tip fibroblasts; format: cell-based
Description: The cells in the cell-culture dish were collected, extracted using AxyPrep Total RNA Mini Prep Kit or Qiagen AxyPrep Total RNA Mini Prep Kit, and the extracted RNA concentration is measured using Nanodrop; the extracted mRNA was reverse transcribed into cDNA by Transgen's EasyScript® One-Step gDNA Removal and cDNA Synthesis SuperMix and the primers used for reverse transcription were Oligo dT primers; the completion of reverse transcription followed by qRT-PCR reaction through PerfectStart™ Green qPCR SuperMix to detect the expression of the target gene; the qRT-PCR reaction was performed on the Bio-Rad CFX96 Real-Time PCR system; see Table 2 and Table 3 for the 20 μL qRT-PCR reaction system and reaction procedures; data analysis was performed in Prism 7 software using the 2^−ΔΔCt process with GAPDH as internal reference for relative quantification of the expression of the target gene.
Compound G was added to the mouse tail tip fibroblasts (TTF), after incubation for 6 hours, mRNA was extracted, and the transcription level of the autophagy-related genes and the lysosomal genes in the cells was detected.
First, lentivirus packaged with control shRNA or FXR shRNA-2 was used to infect the mouse TTF. After treatment with Compound G, mRNA was extracted for detection of gene transcription.

Compound: C/C=C1\C(=O)C[C@H]2[C@@H]3CCC4=CC(=O)CC[C@]4(C)[C@H]3CC[C@]12C [Compound G, (Z)-guggulsterone]
- activity of cathepsins D (fluorescence intensity) (cathepsin D): significantly increased
- increases of p62 protein after adding Baf-A1 (autophagic flux) (p62 protein; CLN3^Δex7/8 human neurons): higher increases of p62 protein
- intracellular protein level of p62 (p62 protein; under the condition of adding Baf-A1): still significantly increase
- expression of the autophagy-related genes ([1]; TTF infected with FXR shRNA-2): failed to increase
- transcription level of the autophagy-related genes and the lysosomal genes ([1]; TTF, incubation for 6 hours): significantly increase
- expression of the autophagy-related genes ([1]; control shRNA-infected TTF): significantly increase
